Source: PubChem BioAssay (NCI)
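All cell lines were grown in 96-well plates and treated with compound for 48 hours. The concentration for full growth arrest is given as TGI.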

What was measured:
Assay in all cases: NCI tumour cell line growth inhibition, 48 h
[1] = system: LXFL 529 NSCLC
[2] = system: OVCAR-3 ovarian
[3] = system: DMS 273 small cell lung
[4] = system: M19-MEL melanoma
[5] = system: SNB-78 CNS
[6] = system: KM20L2 colon
[7] = system: DMS 114 small cell lung
[8] = system: XF 498 CNS
[9] = system: TK-10 renal
[10] = system: HOP-18 NSCLC
[11] = system: DLD-1 colon
[12] = system: RPMI-8226 leukemia
[13] = system: ACHN renal
[14] = system: SW-620 colon
[15] = system: NCI/ADR-RES ovarian
[16] = system: RXF-631 renal

SMILES | TGI [1] [µM] | TGI [2] [µM] | TGI [3] [µM] | TGI [4] [µM] | TGI [5] [µM] | TGI [6] [µM] | TGI [7] [µM] | TGI [8] [µM] | TGI [9] [µM] | TGI [10] [µM] | TGI [11] [µM] | TGI [12] [µM] | TGI [13] [µM] | TGI [14] [µM] | TGI [15] [µM] | TGI [16] [µM]
COC(=O)[C@@]1(C(C)CC(=O)O)CCCCC1=O (some centres undefined) | > 100 | > 100 | 39.7 | > 100 | > 100 | > 100 | > 100 | > 100 | > 100 | > 100 | > 100 | 82 | > 100 |  |  | 
[O-]c1c2cc(-[n+]3c(-c4ccccc4)cc(-c4ccccc4)cc3-c3ccccc3)cc1COCCOCCOCCOCCOC2 | 55 |  | > 100 | 87.3 |  | > 100 |  |  | > 100 | > 100 | > 100 |  | > 100 | > 100 |  | 
COc1ccc(OC)c(N(CN2C(=O)CCC2C(=O)O)C(C)=O)c1 (centres undefined) |  | > 100 |  |  |  |  |  |  | > 100 |  |  | > 100 | > 100 | > 100 | > 100 | 
CCOC(=O)c1sc2nc(SC)nc3c2c1NCN3c1ccc2c(c1)OCO2 |  | 50 |  |  |  |  |  |  | 43.7 |  |  | > 100 | 26 | 45.1 | 30.8 | 
Cc1cc(N(CCC#N)CCC#N)ccc1/C(N=Nc1cccc(Cl)c1)=N/NC(=O)c1cc(Cl)ccc1O |  | 16.5 |  |  |  |  |  |  | 59.7 |  |  | 63.5 | 42 | > 100 | 54.6 | 
c1cc2nnc1SCCCSc1ccc(nn1)SCCCS2 |  | > 74.1 |  |  |  |  |  |  | 98.8 |  |  | > 100 | > 100 | > 100 | > 52.9 | 
COc1cc2c(c(O)c1OC)C(=O)[C@@H]1CCC(=O)N1C2 |  | > 100 |  |  |  |  |  |  | > 100 |  |  | > 100 | > 100 | > 100 | > 100 | 
COc1ccc2c(c1)c1c(n2CCN(C)C)-c2ccccc2CC1 |  | 30.9 |  |  |  |  |  |  | 29.8 |  |  | 45 | 30 | 34.2 | 31.5 | 
CC(=O)C1=CN=C2C(=O)N(c3ccccc3)N(C)C12C (centres undefined) |  | > 100 |  |  |  |  |  |  | > 100 |  |  | > 100 | > 100 | > 100 | > 100 | 
CCCCCCCC1(N=[N+]=[N-])C(=O)Nc2ccccc2C1=O (centres undefined) |  | 29.6 |  |  |  |  |  |  | 31 |  |  | > 100 | 28.6 | 26.4 | 48.5 | 
CC(=O)OCC(=O)O[C@@H]1[C@H]2[C@@H](OC(=O)c3ccccc3)[C@@H](C)C[C@]2(O)[C@H](OC(C)=O)[C@@]2(C)C(OC(C)=O)[C@]1(OC(C)=O)C[C@H]1C(=O)C(C)(C)C[C@@H]12 (some centres undefined) |  | > 50 |  |  |  |  |  |  | > 50 |  |  | > 50 | > 50 | > 50 | > 50 | 
CCN(CC)c1ccc2c(c1)Oc1ccc(N(CC)CC)cc1C21Oc2ccccc2-c2c1c1ccccc1n2CC (centres undefined) | > 100 | > 100 | > 100 |  | > 100 | > 100 | 3.61 | 4.08 |  | > 100 | > 100 | > 100 | > 100 | > 100 |  | > 100
